Measurements published in patent US20090227518A1, “COMPOSITIONS AND METHODS FOR TREATING ACTIN-MEDIATED MEDICAL CONDITIONS” (The Regents of the University of Colorado, priority 2005, published 2009).

These compounds were tested on NF-κB (assay: IL-18-induced NF-κB expression). Conditions: induced by IL-18.
Assay type: cell-based
Text: P3 inh is also known as CE-2072 or (benzyloxycarbonyl)-L-valyl-N-[1-(2-(3-methylbenzyl)-1,3,4-oxadiazolyl]carbonyl)-2-(S)-methylpropyl]-L-prolinamide. Methods of preparing P3 inh and its derivatives are disclosed in U.S. Pat. No. 5,807,829, which is incorporated by reference herein. […] A band that corresponds to IL-18-induced NF-κB was much larger than NF-κB in controls not stimulated by IL-18. […] This was an unexpected observation as these compounds are not known to interfere with NF-κB expression.

Compound	NF-κB expression
Cc1cccc(Cc2nnc(C(=O)C(NC(=O)[C@@H]3CCCN3C(=O)[C@@H](NC(=O)OCc3ccccc3)C(C)C)C(C)C)o2)c1 (stereo partly shown) [P3 inh]	reduced

What follows are compounds tested on F-actin (assay: F-actin filament depolymerization). Conditions: added to preformed F-actin filaments.
Assay type: biochemical
Protocol: In separate experiments (data not shown), F-actin filaments were produced and AAT was added to determine if AAT had depolymerization properties. As a control, Getsolin™, a protein that has known depolymerization properties, was added to F-actin filaments.

Compound	depolymerization of F-actin filaments
gelsolin	actively dissociate

What follows are compounds tested against porcine elastase (Sus scrofa, UniProt P00772) (assay: Elastase neutralization assay). Conditions: cleavable color-generating substrate.
Assay type: biochemical
Protocol: The anti-serine protease function of AAT was examined for its role in the inhibitory effects on HIV-1. AAT was modified to reduce its serine protease inhibitory function to undetectable levels. Quantitation of the anti-protease activity of AAT was determined using an elastase neutralization assay. In this assay porcine elastase was incubated with a cleavable substrate. Upon cleavage of the substrate by elastase, a color-generating product was released, which was quantitated using a spectrophotometer. […] The inactivated AAT was then added to U1 cells, which was then stimulated with IL-18 and compared to native AAT.

porcine elastase, sequence (P00772 27-266): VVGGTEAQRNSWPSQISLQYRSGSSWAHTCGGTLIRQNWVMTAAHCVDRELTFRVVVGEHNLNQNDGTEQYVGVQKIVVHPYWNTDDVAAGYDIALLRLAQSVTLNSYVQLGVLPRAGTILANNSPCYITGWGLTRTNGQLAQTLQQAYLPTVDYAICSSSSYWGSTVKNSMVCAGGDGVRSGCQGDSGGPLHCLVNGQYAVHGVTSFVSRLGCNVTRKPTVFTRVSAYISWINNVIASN

Compound	anti-protease (elastase inhibitory) activity
Oxidized AAT: AAT oxidized by myeloperoxidase (MPO) system; loss of activity confirmed by elastase activity assay	Loss of activity

What follows are compounds tested on peritoneal cellular infiltrate (assay: Thioglycolate-elicited peritoneal infiltration). Conditions: 1 mg.
Assay type: in vivo, mice
Protocol: Peritoneal lavage was performed at 24 and 48 hours (thioglycolate) or on days 1-5 (allogeneic cells). For lavage, mice were anesthetized by isoflurane inhalation and injected immediately with 5.5 ml cold PBS containing 5% FCS and 5 U/ml heparin into the peritoneal cavity. After massaging the abdomen, peritoneal fluid was recovered with an 18.5 G needle and syringe. Recovered volumes ranged from 4.5 to 5.5 ml. Red blood cells were lysed (RBC lysing buffer, BD PharMingen) and cell counts were performed with a hemocytometer. Cells were then centrifuged and the pellet was resuspended in wash buffer containing 2% BSA, 0.1% sodium azide and 0.1% EDTA. Cells were kept at 4° C. throughout the staining procedure. Cells (at least 1×10^6/polypropylene vial) were incubated with FcγRIII/II receptor blocking antibodies (Table 1) for 10 min. […] The number of cells expressing a particular marker was calculated by multiplying percentages obtained from flow-cytometry by the concentration of cells in lavage fluid.
To address the possibility that AAT affects immune cell infiltration, two models of cell emigration were examined: thioglycolate (ThG)-elicited peritoneal infiltration, and cellular infiltration due to intraperitoneal injection of MHC-incompatible fibroblasts. […] Peritoneal lavage was performed 24 and 48 hours later and cells were counted and stained with specific antibodies for FACS analysis.

Compound	cellular infiltrate
Oxidized AAT: AAT oxidized by myeloperoxidase (MPO) system; loss of activity confirmed by elastase activity assay	did not affect cellular infiltrate

What follows are compounds tested on HIV-1 (assay: U1 monocytic cell assay (HIV-1 p24 antigen)). Conditions: same experimental condition as in Example 7.
Protocol: The U1 cell line was derived from human monocytic U937 cells into which 2 copies of HIV-1 provirus were incorporated into host genome. […] U1 cells were maintained in T-175 polystyrene flasks (Falcon, Becton Dickinson, Franklin Lakes, N.J.) in medium and used when in log phase growth. Cells were counted in a hemacytometer, examined for viability by Trypan blue exclusion (>95% for all experiments) and resuspended in fresh medium at 2×10^6 per ml. Two-hundred fifty μl of cell suspension were added to wells of 24-well polystyrene tissue culture plates (Falcon), followed by the addition of medium or AAT to produce the final concentration to be tested in a volume of 450 μl. After 1.0 hr of incubation (37° C., 5% CO2), 50 μl of medium (control) or stimulus diluted in medium were added to wells to produce the final concentration of stimulus to be tested. The final culture volumes were 500 μl and contained 1×10^6 cells per ml. […]
Data are presented as means±SEM. […] For data expressed as percent change, the values for p24 in control cultures (medium alone) were subtracted from those for each culture-containing stimulus. […] Percent p24 in cultures containing stimulus and AAT were calculated by dividing the measured p24 by that present in cultures containing stimulus alone. The resultant fraction was expressed as a percent.

Compound	anti-HIV-1 effect
Cc1cccc(Cc2nnc(C(=O)C(NC(=O)[C@@H]3CCCN3C(=O)[C@@H](NC(=O)OCc3ccccc3)C(C)C)C(C)C)o2)c1 (stereo partly shown) [P3 inh]	significant anti-HIV-1 effect

The compounds below were run on HIV-1 strain A018A (assay: not given). Conditions: alone or in combination.
Assay type: cell-based, human
Text: The MAGI (Multinuclear Activation of a Galactosidase Indicator)-CCR-5 cell line is a clone derived from the HeLa cell line that expresses high levels of CD4. It has been transfected with a single integrated copy of a galactosidase gene under control of the HIV-1 long terminal repeat. β-Galactosidase is expressed upon production of HIV-1 Tat protein following one round of HIV-1 replication within the cell. The MAGI-CCR-5 cell line is derived from MAGI cells into which the CCR-5 HIV-1 co-receptor gene has been incorporated. These cells constitute an assay for early infection events and can be infected with either lymphocyte-tropic or macrophage-tropic HIV-1 strains.
Cells were cultured in polystyrene T-175 flasks in medium until cells were noted to be in log growth phase. Cells were then resuspended in fresh medium and aliquoted into 24-well polystyrene plates at 4×10^4 cells per well (1.0 ml total volume). After 24 hr incubation adherent cells were 30-40% confluent and medium was removed. Two hundred μl of fresh medium was then added to each well without (negative control) or with AAT and incubated for 1 hour. AAT diluent was added to a separate well at a volume equivalent to that of the highest concentration of AAT tested (control).
One hundred thirty TCID50 of HIV-1 and DEAE dextran in medium were added to each well. T-cell tropic HIV-1 strain A018A was used. After 2 hr incubation, medium was added to each well to adjust the final volume of each well to 500 μl. Cultures were incubated for 48 hr, which allowed infection of the MAGI-CCR-5 cells. Medium was aspirated and the cells fixed for 5.0 min at room temperature by adding 1.0 ml of a 1% formaldehyde/0.2% glutaraldehyde solution in phosphate buffered saline (PBS). Fixing solution was then aspirated and cells washed with PBS. This was followed by addition of galactosidase staining solution. Fifty minutes of incubation was followed by a blinded optical count of pigmented cells under a microscope.
The MAGI-CCR-5 cell assay evaluates early events in the HIV-1 infection process. These events include cell-surface binding and internalization, uncoating, reverse transcription and translation, protein processing and Tat activity. Binding of the tat protein to a reporter construct within the MAGI-CCR-5 cells enables quantification of these early HIV-1 events.

Compound	antiviral activity in MAGI cultures
FVFLM: short peptide from the C-terminal region of AAT	active
FVYLI: carboxyterminal peptide analyzed for its effect on HIV-1	active
FVFAM: short peptide homologous/analogous to the C-terminal region of AAT	active
FLFVV: short peptide homologous/analogous to the C-terminal region of AAT	active
FLVFI: short peptide homologous/analogous to the C-terminal region of AAT	active
FLMII: short peptide homologous/analogous to the C-terminal region of AAT	active
FLFCI: short peptide homologous/analogous to the C-terminal region of AAT	active
FAFLM: short peptide homologous/analogous to the C-terminal region of AAT	active
FLFVL: short peptide homologous/analogous to the C-terminal region of AAT	active
FLFAV: short peptide homologous/analogous to the C-terminal region of AAT	active
FVALM: short peptide homologous/analogous to the C-terminal region of AAT	active
FLFLI: short peptide homologous/analogous to the C-terminal region of AAT	active
FMLLI: short peptide homologous/analogous to the C-terminal region of AAT	active
FVFLA: short peptide homologous/analogous to the C-terminal region of AAT	active
FIIMI: short peptide homologous/analogous to the C-terminal region of AAT	active
FLFFI: short peptide homologous/analogous to the C-terminal region of AAT	active
AVFLM: short peptide homologous/analogous to the C-terminal region of AAT	active
FLMFI: short peptide homologous/analogous to the C-terminal region of AAT	active

Each compound was assayed against F-actin (filamentous actin) (assay: F-actin co-sedimentation, 150,000 x g, SDS-PAGE densitometry, eight replicates). Conditions: not given.

Compound	fold increase in actin-sedimented AAT against AAT only [fold]	percentage of AAT sedimented in the presence of actin (AAT only = 100%) [%]
α1-antitrypsin (AAT), purified from human plasma	1.7	268
